Results taken from patent US5234935A, “N-alkylated 1,4-dihydropyridine-dicarboxylic acid esters” (Bayer Aktiengesellschaft, priority 1990, dated 1993).

Tests used:
erythrocytes [1] = experiment: Filtration of calcium-laden erythrocytes through 5 μm pores; type: cell-based; settings: Erythrocyte, 0.5 h; filtration through 5 μm sieve pores; sheared in normal buffer 30 min; read-out: ED50 improvement in the flexibility compared to damage to control
Method: Test c) detects the filterability of calcium-laden erythrocytes through 5 μm pores (ED50, mol/l). In this test, the membrane flexibility plays a role under small force gradients.
Filtration of erythrocytes through 5 μm sieve pores is an established method for the determination of the deformability of erythrocytes. The cells are sheared in normal buffer for 30 min so that the calcium concentration increases intracellularly and the flexibility is reduced.

erythrocytes [2] = experiment: Antihaemolytic action, calcium-laden erythrocytes under high shearing stress; type: cell-based; settings: Erythrocyte; reduction of haemoglobin release from calcium-laden erythrocytes; read-out: ED50 of the antihaemolytic action
Text: Test b) detects the antihaemolytic action of the substances (ED50, mol/l). In this test, calcium-laden erythrocytes are forced through small pores under high shearing stresses, so that haemoglobin is released as a result of their haemolysis and measured. The reduction in haemoglobin release is the measured quantity.
Normal erythrocytes become haemolytic under high shearing stresses. The haemolysis of calcium-laden cells is particularly pronounced. This measure of mechanical stability is used for substance characterization. The measured quantity is the concentration of free haemoglobin in the medium.

erythrocytes [3] = experiment: Calcium permeability of erythrocytes (45Ca) after ATPase blockade by Na ortho-vanadate; type: cell-based; settings: Erythrocyte; inhibition of calcium influx (45Ca); Na ortho-vanadate 0.75 mM; read-out: ED50 of the inhibition
Method: Test a) measures the calcium permeability (^45 Ca) by blockade of the ATPases by Na ortho-vanadate. As a result, calcium can accumulate in the erythrocytes. A consequence is a reduced flexibility. ED50 values (mol/l) for the inhibition of calcium influx are given for test a).
After blockade of the membrane-immobilized ATPases by Na ortho-vanadate (0.75 mM), the calcium permeability is measured (^45 Ca method). Accumulation of calcium reduces the flexibility of the erythrocytes.

leukocyte adhesion = experiment: Leukocyte adhesion in hamster cheek pouch model; type: in vivo; settings: 0.1 mg/kg i.v.; for Leukocyte adhesion, Ischaemic, control = 100%: ischaemic (10 min circulation stop), small arterioles; for Leukocyte adhesion, Non-ischaemic, control = 100%: small venules
Method: The microcirculation can be directly observed in the hamster cheek pouch model. Measured quantities are leukocyte adhesion and also vessel diameter and erythrocyte velocity. The adhesion was quantified under ischaemic and non-ischaemic experimental conditions. Under non-ischaemic conditions, the adhesion is quantified in the area of small venules, under ischaemic conditions (10 min circulation stop) the adhesion is quantified in small arterioles. The results of the control experiments are given relative to 100%. 0.1 mg/kg i.v. is in each case chosen as the test dose, the results are decreases in % of the control.

SH rats = experiment: Blood pressure in SH rats after p.o. administration (tail artery, Riva Rocci); type: in vivo, rat
Method: (§1) The blood pressure neutrality is determined in the following models, which are typical for dihydropyridines: in SH rats after p.o. administration by measurement in the tail artery (Riva Rocci method) and in anaesthetized Wistar rats after i.v. administration (via a catheter inserted in the carotid artery). Blood-neutral compounds are designated as those which reduce the blood pressure by at most 20% of the starting value in both test models at the dose indicated. The difference between the therapeutic dose and the blood pressure action occurring is at least a factor of 10, as a rule a factor of ≥30, in particular ≥100.

[4] = system: anaesthetized Wistar rats; experiment: Blood pressure in anaesthetized Wistar rats after i.v. administration (carotid catheter); type: in vivo, rat
Method: as §1

| SMILES | EC50 (erythrocytes [1]) | EC50 (erythrocytes [2]) | IC50 (erythrocytes [3]) | Leukocyte adhesion, Ischaemic, control = 100% (leukocyte adhesion) | Leukocyte adhesion, Non-ischaemic, control = 100% (leukocyte adhesion) | Dose at which a blood pressure reduction occurs, p.o. (SH rats) | Dose at which a blood pressure reduction occurs, i.v. [4] |
| --- | --- | --- | --- | --- | --- | --- | --- |
| CCOC(=O)C1=C(C)N(C)C(C)=C(C(=O)OCC)C1c1ccc(F)cc1 [Example 1, Diethyl 1,2,6-trimethyl-4-(4-fluorophenyl)-1,4-dihydropyridine-3,5-dicarboxylate] | 5 µM | – | – | – | – | – | – |
| COC(=O)C1=C(C)N(C)C(C)=C(C(=O)OC)C1c1cccc(F)c1 [Example 2, Dimethyl 4-(3-fluorophenyl)-1,2,6-trimethyl-1,4-dihydropyridine-3,5-dicarboxylate] | – | 0.1 µM | – | – | – | – | – |
| COC(=O)C1=C(C)N(C)C(C)=C(C(=O)OC)C1c1ccc(C(F)(F)F)cc1 [Example 3, Dimethyl 1,2,6-trimethyl-4-(4-trifluoromethylphenyl)-1,4-dihydro-pyridine-3,5-dicarboxylate] | 5 µM | – | 5 µM | 31% | 63% | > 30 mg/kg | > 10 mg/kg |
| CCCCOC(=O)C1=C(C)N(C)C(C)=C(C(=O)OCCCC)C1c1ccc([N+](=O)[O-])cc1 [Example 6, dibutyl 1,2,6-trimethyl-4-(4-nitrophenyl)-1,4-dihydropyridine-3,5-dicarboxylate] | – | – | – | 56% | 50% | > 30 mg/kg | > 10 mg/kg |
| COC(=O)C1=C(C)N(C)C(C)=C(C(=O)OC(C)C(C)C)C1c1ccc(C(F)(F)F)cc1 (centres unmarked) [Example 9, methyl 1,2-dimethylpropyl 1,2,6-trimethyl-4-(4-trifluoromethylphenyl)-1,4-dihydro-pyridine-3,5-dicarboxylate] | – | – | – | 36% | 70% | > 30 mg/kg | > 10 mg/kg |
| COC(=O)C1=C(C)N(C)C(C)=C(C(=O)OC)C1c1ccc(Br)cc1 [Example 13, dimethyl 1,2,6-trimethyl-4-(4-bromophenyl)-1,4-dihydropyridine-3,5-dicarboxylate] | – | 0.5 µM | 5 µM | – | – | – | – |
| CCCOC(=O)C1=C(C)N(C)C(C)=C(C(=O)OCCC)C1c1ccc(C#N)cc1 [Example 15, dipropyl 1,2,6-trimethyl-4-(4-cyanophenyl)-1,4-dihydropyridine-3,5-dicarboxylate] | – | 5 µM | – | – | – | – | – |
| COC(=O)C1=C(C)N(C2CC2)C(C)=C(C(=O)OC)C1c1ccc(C(F)(F)F)cc1 [Example 18, dimethyl 1-cyclopropyl-2,6-dimethyl-4-(4-trifluoromethylphenyl)-1,4-dihydro-pyridine-3,5-dicarboxylate] | – | – | – | 32% | 54% | > 30 mg/kg | > 10 mg/kg |
| CCOC(=O)C1=C(C)N(C2CC2)C(C)=C(C(=O)OCC)C1c1ccc(C(F)(F)F)cc1 [Example 19, diethyl 1-cyclopropyl-2,6-dimethyl-4-(4-trifluoromethylphenyl)-1,4-dihydro-pyridine-3,5-dicarboxylate] | – | – | – | 34% | 61% | > 100 mg/kg | > 10 mg/kg |
| COC(=O)C1=C(C)N(C)C(C)=C(C(=O)OC)C1c1ccc(C)c([N+](=O)[O-])c1 [Example 21, dimethyl 1,2,6-trimethyl-4-(4-methyl-3-nitrophenyl)-1,4-dihydro-pyridine-3,5-dicarboxylate] | – | 0.5 µM | 5 µM | – | – | – | – |
| CCOC(=O)C1=C(C)N(C)C(C)=C(C(=O)OCC)C1c1ccc(C)c([N+](=O)[O-])c1 [Example 22, diethyl 1,2,6-trimethyl-4-(4-methyl-3-nitrophenyl)-1,4-dihydro-pyridine-3,5-dicarboxylate] | – | 0.5 µM | – | – | – | – | – |
| COC(=O)C1=C(C)N(C)C(C)=C(C(=O)OC)C1c1ccc(Cl)c(C(F)(F)F)c1 [Example 26, dimethyl 1,2,6-trimethyl-4-(4-chloro-3-trifluoromethylphenyl)-1,4-dihydro-pyridine-3,5-dicarboxylate] | 5 µM | 0.03 µM | – | – | – | – | – |
| COC(=O)C1=C(C)N(C)C(C)=C(C(=O)OC)C1c1ccc(C)c(C(F)(F)F)c1 [Example 27, dimethyl 1,2,6-trimethyl-4-(4-methyl-3-trifluoromethylphenyl)-1,4-dihydro-pyridine-3,5-dicarboxylate] | – | 0.05 µM | 1 µM | – | – | – | – |
| COC(=O)C1=C(C)N(C)C(C)=C(C(=O)OC)C1c1ccc([N+](=O)[O-])c(O)c1 [Example 28, dimethyl 1,2,6-trimethyl-4-(3-hydroxy-4-nitrophenyl)-1,4-dihydro-pyridine-3,5-dicarboxylate] | 5 µM | – | – | – | – | – | – |
